Test results reported in PubChem BioAssay AID248 (DTP/NCI, 2004).
Values joined by “and” are separate entries in the source; they are usually repeats but may differ in a detail not shown here. Equal entries are not always repeated. Toxic doses and inconclusive results are not listed. No stated cut-off is given here; in the data, active means T/C of 150% or more; inactive means T/C below 125%.

Test system: L1210 leukemia ip in BDF1 mice, survival T/C
Experiment: NCI In Vivo Anticancer Drug Screen. Data for tumor model L1210 Leukemia (intraperitoneal) in B6D2F1 (BDF1) mice
Settings: endpoint: mean survival time, higher = longer survival
Summary of the method: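 Read-out is survival time, reported as the treated-group measurement over the vehicle-control measurement.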

[1] = dose: 100.0 mg/kg/injection, schedule: Q01DX009 (ip), vehicle: saline with Tween-80
[2] = dose: 100.0 mg/kg/injection, schedule: Q04DX002 (ip), vehicle: saline with Tween-80
[3] = dose: 100.0 mg/kg/injection, schedule: Q04DX003 (ip), vehicle: saline with Tween-80
[4] = dose: 200.0 mg/kg/injection, schedule: Q01DX009 (ip), vehicle: saline with Tween-80
[5] = dose: 200.0 mg/kg/injection, schedule: Q04DX002 (ip), vehicle: saline with Tween-80
[6] = dose: 200.0 mg/kg/injection, schedule: Q04DX003 (ip), vehicle: saline with Tween-80
[7] = dose: 400.0 mg/kg/injection, schedule: Q04DX002 (ip), vehicle: saline with Tween-80
[8] = dose: 400.0 mg/kg/injection, schedule: Q04DX003 (ip), vehicle: saline with Tween-80
[9] = dose: 100.0 mg/kg/injection, schedule: Q01DX009 (ip), vehicle: Klucel (hydroxypropylcellulose) (HPC)
[10] = dose: 200.0 mg/kg/injection, schedule: Q01DX009 (ip), vehicle: Klucel (hydroxypropylcellulose) (HPC)
[11] = dose: 400.0 mg/kg/injection, schedule: Q01DX009 (ip), vehicle: Klucel (hydroxypropylcellulose) (HPC)
[12] = dose: 100.0 mg/kg/injection, schedule: Q04DX003 (ip), vehicle: Klucel (hydroxypropylcellulose) (HPC)
[13] = dose: 200.0 mg/kg/injection, schedule: Q04DX003 (ip), vehicle: Klucel (hydroxypropylcellulose) (HPC)
[14] = dose: 400.0 mg/kg/injection, schedule: Q04DX003 (ip), vehicle: Klucel (hydroxypropylcellulose) (HPC)
[15] = dose: 75.0 mg/kg/injection, schedule: Q01DX001 (ip), vehicle: saline
[16] = dose: 100.0 mg/kg/injection, schedule: Q01DX001 (ip), vehicle: carboxymethylcellulose (CMC)
[17] = dose: 200.0 mg/kg/injection, schedule: Q01DX001 (ip), vehicle: carboxymethylcellulose (CMC)

Measured: T/C

O=C(/C=C/c1ccccc1)Nc1ccc2ccccc2c1
inactive: [1] 107 % of control and 108 % of control | [2] 102 % of control and 114 % of control | [3] 92 % of control | [4] 96 % of control and 108 % of control | [5] 96 % of control and 102 % of control | [6] 100 % of control | dose: 400.0 mg/kg/injection, schedule: Q01DX009 (ip), vehicle: saline with Tween-80 94 % of control and 101 % of control | [7] 93 % of control and 107 % of control | [8] 101 % of control

CCC1(Cl)C(=O)OCc2c1cc1n(c2=O)Cc2cc3ccccc3nc2-1 (centres undefined)
inactive: dose: 1.0 mg/kg/injection, schedule: Q01DX001 (ip), vehicle: saline 97 % of control | dose: 1.0 mg/kg/injection, schedule: Q01DX Z (ip), vehicle: saline 100 % of control | dose: 2.0 mg/kg/injection, schedule: Q01DX001 (ip), vehicle: saline 101 % of control | dose: 2.0 mg/kg/injection, schedule: Q01DX Z (ip), vehicle: saline 95 % of control | dose: 4.0 mg/kg/injection, schedule: Q01DX001 (ip), vehicle: saline 100 % of control | dose: 4.0 mg/kg/injection, schedule: Q01DX Z (ip), vehicle: saline 97 % of control | dose: 6.0 mg/kg/injection, schedule: Q01DX001 (ip), vehicle: saline 95 % of control | dose: 6.0 mg/kg/injection, schedule: Q01DX Z (ip), vehicle: saline 103 % of control

CCc1cc2c(cc1/C(C)=N/N=C(\C)c1cc3c(cc1CC)C(C)(C)CCC3(C)C)C(C)(C)CCC2(C)C
inactive: [9] 97 % of control | [10] 89 % of control | [11] 93 % of control

CC(=O)c1ccc2c3ccccc3n(CCCN3CCC(O)CC3)c2c1
inactive: dose: 100.0 mg/kg/injection, schedule: Q04DX002 (ip), vehicle: saline 95 % of control | dose: 200.0 mg/kg/injection, schedule: Q04DX002 (ip), vehicle: saline 113 % of control

COCC1C2CC(=O)OC2C(I)C1OC(=O)c1ccc(-c2ccccc2)cc1 (centres undefined)
inactive: [12] 100 % of control | [13] 104 % of control | [14] 91 % of control

NCCc1ccc(Nc2ccnc3cc(Cl)ccc23)cc1
inactive: [15] 109 % of control | dose: 150.0 mg/kg/injection, schedule: Q01DX001 (ip), vehicle: saline 101 % of control | dose: 300.0 mg/kg/injection, schedule: Q01DX001 (ip), vehicle: saline 98 % of control

CCC(C)(C)c1ccc(O)c(C(=O)O)c1
inactive: [16] 90 % of control | [17] 95 % of control

COc1cc(C2c3cc4c(cc3C(O)C(CO)C2CO)OCO4)cc(OC)c1OC (centres undefined)
inactive: dose: 8.75 mg/kg/injection, schedule: Q01DX Z (ip), vehicle: carboxymethylcellulose (CMC) 100 % of control | dose: 11.5 mg/kg/injection, schedule: Q01DX Z (ip), vehicle: carboxymethylcellulose (CMC) 108 % of control | dose: 17.0 mg/kg/injection, schedule: Q01DX Z (ip), vehicle: carboxymethylcellulose (CMC) 113 % of control | dose: 17.5 mg/kg/injection, schedule: Q01DX Z (ip), vehicle: carboxymethylcellulose (CMC) 114 % of control | dose: 26.0 mg/kg/injection, schedule: Q01DX Z (ip), vehicle: carboxymethylcellulose (CMC) 120 % of control | dose: 35.0 mg/kg/injection, schedule: Q01DX Z (ip), vehicle: carboxymethylcellulose (CMC) 106 % of control | dose: 37.5 mg/kg/injection, schedule: Q04DX003 (ip), vehicle: saline 98 % of control | dose: 50.0 mg/kg/injection, schedule: Q01DX001 (ip), vehicle: carboxymethylcellulose (CMC) 95 % of control | dose: 70.0 mg/kg/injection, schedule: Q01DX Z (ip), vehicle: carboxymethylcellulose (CMC) 98 % of control | dose: 75.0 mg/kg/injection, schedule: Q04DX003 (ip), vehicle: saline 118 % of control | [16] 104 % of control | dose: 140.0 mg/kg/injection, schedule: Q01DX Z (ip), vehicle: carboxymethylcellulose (CMC) 100 % of control and 121 % of control | dose: 150.0 mg/kg/injection, schedule: Q04DX003 (ip), vehicle: saline 110 % of control | [17] 101 % of control | dose: 280.0 mg/kg/injection, schedule: Q01DX Z (ip), vehicle: carboxymethylcellulose (CMC) 105 % of control | dose: 400.0 mg/kg/injection, schedule: Q01DX001 (ip), vehicle: carboxymethylcellulose (CMC) 98 % of control

C/C=N/NC(=O)c1ccc[n+](C)c1
inactive: dose: 50.0 mg/kg/injection, schedule: Q01DX009 (ip), vehicle: saline 93 % of control | dose: 100.0 mg/kg/injection, schedule: Q01DX009 (ip), vehicle: saline 96 % of control | dose: 200.0 mg/kg/injection, schedule: Q01DX009 (ip), vehicle: saline 96 % of control

COc1ccc2cc(C(C)=O)ccc2c1
inactive: dose: 50.0 mg/kg/injection, schedule: Q01DX001 (ip), vehicle: saline 117 % of control | dose: 100.0 mg/kg/injection, schedule: Q01DX001 (ip), vehicle: saline 105 % of control | dose: 200.0 mg/kg/injection, schedule: Q01DX001 (ip), vehicle: saline 100 % of control | dose: 400.0 mg/kg/injection, schedule: Q01DX001 (ip), vehicle: saline 110 % of control

O=S(=O)(CCCCl)Nc1ccccn1
inactive: [2] 100 % of control | [5] 93 % of control | [7] 93 % of control

Cc1ccc(NC(=S)NC(=O)C(C)Oc2ccccc2)cc1Cl (centres undefined)
inactive: [9] 94 % of control | [12] 100 % of control | [10] 101 % of control | [13] 101 % of control | [11] 101 % of control | [14] 109 % of control

CCCP(CCC)c1ccccc1
inactive: dose: 100.0 mg/kg/injection, schedule: Q01DX009 (sc), vehicle: olive oil, sesame oil, peanut oil 96 % of control | dose: 100.0 mg/kg/injection, schedule: Q04DX003 (sc), vehicle: olive oil, sesame oil, peanut oil 93 % of control | dose: 200.0 mg/kg/injection, schedule: Q01DX009 (sc), vehicle: olive oil, sesame oil, peanut oil 113 % of control | dose: 200.0 mg/kg/injection, schedule: Q04DX003 (sc), vehicle: olive oil, sesame oil, peanut oil 95 % of control | dose: 400.0 mg/kg/injection, schedule: Q01DX009 (sc), vehicle: olive oil, sesame oil, peanut oil 100 % of control | dose: 400.0 mg/kg/injection, schedule: Q04DX003 (sc), vehicle: olive oil, sesame oil, peanut oil 91 % of control

Cc1cnc2c(=N)n(C(=O)C(F)(F)F)n(C)c2n1
inactive: [9] 104 % of control | dose: 100.0 mg/kg/injection, schedule: Q04DX003 (ip), vehicle: saline 94 % of control | [10] 102 % of control | dose: 200.0 mg/kg/injection, schedule: Q04DX003 (ip), vehicle: saline 110 % of control | dose: 400.0 mg/kg/injection, schedule: Q04DX003 (ip), vehicle: saline 95 % of control

CC(C)(C(=O)O)c1ccccc1C(=O)c1ccccc1
inactive: [12] 97 % of control | [13] 101 % of control | [14] 105 % of control

Cc1ccc(CCl)cc1
inactive: [1] 102 % of control | [3] 100 % of control | [4] 102 % of control | [6] 104 % of control | [8] 102 % of control

COC(=O)C1C2CCCCC2(C)CC12SCCS2 (centres undefined)
inactive: dose: 100.0 mg/kg/injection, schedule: Q04DX002 (ip), vehicle: Klucel (hydroxypropylcellulose) (HPC) 107 % of control | dose: 200.0 mg/kg/injection, schedule: Q04DX002 (ip), vehicle: Klucel (hydroxypropylcellulose) (HPC) 107 % of control | dose: 400.0 mg/kg/injection, schedule: Q04DX002 (ip), vehicle: Klucel (hydroxypropylcellulose) (HPC) 93 % of control

CC(=O)C1(O)Cc2c(O)c3c(c(O)c2C(OC2CC(N)C(O)C(C)O2)C1)C(=O)c1ccccc1C3=O (centres undefined)
inactive: dose: 0.1 mg/kg/injection, schedule: Q01DX009 (ip), vehicle: saline 119 % of control | dose: 0.8 mg/kg/injection, schedule: Q01DX009 (ip), vehicle: saline 92 % of control

c1ccc2c(c1)CCc1cc3c(nc1-2)-c1ccccc1CC3
inactive: [9] 97 % of control | [12] 100 % of control | [10] 98 % of control | [13] 100 % of control | [11] 95 % of control | [14] 94 % of control

C[N+]1(C)C2CCC1CC(=NO)C2
inactive: [15] 104 % of control

Cc1cc(C)c(NC(=O)Nc2ccccc2)c(C)c1
inactive: [9] 96 % of control | [12] 98 % of control | [10] 104 % of control | [13] 98 % of control | [11] 95 % of control | [14] 101 % of control
